Test system: RSV (RSS strain)
Assay: RSV ELISA antigen reduction assay in Hep-2 cells
Assay type: cell-based, Respiratory Syncytial Virus
Conditions: RSV-infected Hep-2 cells, 3 day assay, ELISA OD 490 nm, 7-point dilution 50 μM-0.78 μM
Protocol: This was quantified by optical density (OD) measurement.
This assay was set up using all 96 wells of flat-bottomed 96-well plates. The outer wells were not subjected to any greater amount of evaporation than the inner wells during the 3 day assay period. (i.e. No “edge effect” seen).
Plates were set up one day before addition of virus and compounds. The assay then ran for 3 days with ELISA development taking place on the 4th day.
All 96 wells of a microtitre plate were seeded at a density of 4×10^3 Hep-2 cells/well in 100 μl/well of Growth Medium (GM) consisting of Dulbecco's MEM (DMEM) with Glutamax-1, Sodium Pyruvate, 1000 mg/l glucose and pyridoxine (Invitrogen, catalogue number 21885-025) and supplemented with 10% FBS. (See Plate 1).
A frozen vial of RSV (RSS strain provided by Virogen Ltd) stock solution was removed from the −80 freezer or liquid nitrogen store and diluted to a known Multiplicity of Infection (m.o.i) in Growth Medium.
The m.o.i. was calculated by prior titration of the virus stock (by the ELISA assay method) as the virus input required to achieve a window of at least 0.8 OD units between infected and uninfected control wells.
50 μl of diluted virus was added to infected, “virus+”, wells by multichannel pipette; 50 μl of Growth Medium was added to uninfected, cell control wells (CC) by multichannel pipette. (See Plate 2)
Plates were incubated at 37° C. for 1 hr to allow virus adsorption.
Compounds were made up at 4× strength in GM containing 2% DMSO (a final DMSO concentration in the assay of 0.5%).
Six compounds were tested on each assay plate as illustrated below. (See Plate 3). Compounds were tested in duplicate wells across a 7-point dilution series (from 50 μM-0.78 μM): in the presence of virus.
Virus infected, untreated wells served as the virus control (VC); Uninfected, untreated wells serve as the cell control (CC). The difference in absorbance between CC and VC wells constitutes the assay window.
200 μl of GM containing 2% DMSO was added to all wells except the ‘50 μM’ or first column, to which 392 μl of GM was added. 8 μl of each test compound was cherry-picked from a thawed Arrow screening plate and transferred to the appropriate well in the ‘50 μM’ column. Since the compound stock was at 10 mM in 100% DMSO, this will maintain the DMSO level at 2% at the top compound concentration.
Using a multichannel pipette, 200 μl was transferred from the 50 μM column to the 25 μM column, then to the 12.5 μM column and so on across the dilution plate creating a serial doubling dilution. Compounds were mixed upon transfer and tips changed between transfers, ensuring also that no compound was transferred to the last column of compound-free wells (0 μM).
The dilution plate was turned lengthways and 50 μl of compound easily transferred by multichannel pipette from the dilution plate to the assay plate, column by column. There was therefore an excess of 100 μl remaining in the dilution plate.
Plates were incubated at 37° C., 5% CO2 for 3 days.
Media was tapped out from wells directly into Virkon (1% solution in water) and plates were washed by immersing in a plastic box containing PBS. 50 μl/well of 75%/25% vol/vol acetone/methanol fixative was added by multichannel pipette and left for 3 mins.
Some 200 μl of blocking solution (2% Marvel in PBS containing 0.05% Tween) was added per well by multichannel pipette. Plates were incubated at 37° C. in a shaking incubator for 60 mins.
RSV mouse monoclonal antibody NCL-RSV3 (Novocastra) was diluted 1/400 in PBS/2% Marvel/0.05% Tween and 50 μl was added per well. Plates were incubated at 37° C. in a shaking incubator for 90 mins.
DAKo rabbit anti-mouse HRP conjugate (DAKO catalogue number P0260) was diluted 1/1000 in PBS/2% Marvel/0.05% Tween and 50 μl was added per well. Plates were incubated at 37° C. in a shaking incubator for 60 mins.
Substrate (SigmaFast OPD) was prepared in advance by dissolving 1 urea tablet in 20 mL water. […]

Q: With `O=C(N[C@H]1N=C(c2ccccc2)c2ccccc2NC1=O)c1ccccc1N1CCS(=O)(=O)CC1` [Example 3] as the compound, how does the IC50 read?
A: 5 to 10 µM

Q: For `O=C(N[C@H]1N=C(c2ccccc2)c2ccccc2NC1=O)c1ccc(F)cc1N1CCOCC1` [Example 13, (S)-4-Fluoro-2-morpholino-4-yl-N-(2-oxo-5-phenyl-2,3-dihydro-1H-benzo[e][1,4]diazepin-3-yl)-benzamide], which IC50 is on record?
A: 5 to 10 µM

Same assay, conditions: human respiratory syncytial virus, 72 h; RSV-infected Hep-2 cells, 3 day assay, ELISA OD 490 nm, 7-point dilution 50 μM-0.78 μM

Q: Which IC50 does the source give for `CN1CCN(c2ccc(C(=O)NC3N=C(c4ccccc4)c4ccccc4NC3=O)cn2)CC1` (racemic) [Example 1, 6-(4-Methyl-piperazin-1-yl)-N-(2-oxo-5-phenyl-2,3-dihydro-1H-benzo[e][1,4]diazepin-3-yl)-nicotinamide] here?
A: 5 to 10 µM

Q: With `O=C(NC1N=C(c2ccccc2)c2ccccc2NC1=O)c1ccc(N2CCCCC2)nc1` (racemic) [Example 2, 3,4,5,6-Tetrahydro-2H-[1,2′]bipyridinyl-5′-carboxylic acid (2-oxo-5-phenyl-2,3-dihydro-1H-benzo[e][1,4]diazepin-3-yl)-amide] as the compound, how does the IC50 read?
A: 5 to 10 µM

Q: Which IC50 does the source give for `O=C(NC1N=C(c2ccccc2)c2ccccc2NC1=O)c1ccccc1N1CCOCC1` (racemic) [Example 50, 2-Morpholin-4-yl-N-(2-oxo-5-phenyl-2,3-dihydro-1H-benzo[e][1,4]diazepin-3-yl)-benzamide] here?
A: < 5 µM

Q: Which IC50 does the source give for `O=C(Nc1ccc(Oc2ccccc2)cc1)NC1N=C(c2ccccc2)c2ccccc2NC1=O` (racemic) [Example 52, 1-(2-Oxo-5-phenyl-2,3-dihydro-1H-benzo[e][1,4]diazepin-3-yl)-3-(4-phenoxy-phenyl)-urea] here?
A: 5 to 10 µM

Q: Which IC50 does the source give for `O=C(N[C@H]1N=C(c2ccccc2)c2ccccc2NC1=O)c1ccc(N2CCOCC2)cc1Cl` [Example 4, (S)-2-Chloro-4-morpholin-4-yl-N-(2-oxo-5-phenyl-2,3-dihydro-1H-benzo[e][1,4]diazepin-3-yl)-benzamide] here?
A: < 5 µM

Q: With `O=C(N[C@H]1N=C(c2ccccc2)c2ccccc2NC1=O)c1cc(Cl)ccc1N1CCS(=O)(=O)CC1` [Example 6, (S)-5-Chloro-2-(1,1-dioxo-1λ6-thiomorpholin-4-yl)-N-(2-oxo-5-phenyl-2,3-dihydro-1H-benzo[e][1,4]diazepin-3-yl)-benzamide] as the compound, how does the IC50 read?
A: 5 to 10 µM

Q: With `CN1CCN(Cc2ccc(C(=O)N[C@H]3N=C(c4ccccc4)c4ccccc4NC3=O)o2)CC1` [Example 8, (S)-5-(4-Methyl-piperazin-1-ylmethyl)-furan-2-carboxylic acid (2-oxo-5-phenyl-2,3-dihydro-1H-benzo[e][1,4]diazepin-3-yl)-amide] as the compound, how does the IC50 read?
A: < 5 µM

Q: How did the IC50 turn out when `O=C(N[C@H]1N=C(c2ccccc2)c2ccccc2NC1=O)c1ccc(CN2CCCCC2)o1` [Example 10, (S)-5-Piperidin-1-ylmethyl-furan-2-carboxylic acid (2-oxo-5-phenyl-2,3-dihydro-1H-benzo[e][1,4]diazepin-3-yl)-amide] was run?
A: < 5 µM

Q: `CN(C)Cc1ccc(C(=O)N[C@H]2N=C(c3ccccc3)c3ccccc3NC2=O)o1` [Example 11, (S)-5-Dimethylaminomethyl-furan-2-carboxylic acid (2-oxo-5-phenyl-2,3-dihydro-1H-benzo[e][1,4]diazepin-3-yl)-amide] was tested. Which IC50 did it give?
A: < 5 µM

Q: `O=C(N[C@H]1N=C(c2ccccc2)c2ccccc2NC1=O)c1ccc(F)cc1N1CCCCC1` [Example 12, (S)-4-Fluoro-N-(2-oxo-5-phenyl-2,3-dihydro-1H-benzo[e][1,4]diazepin-3-yl)-2-piperidin-1-yl-benzamide] was tested. Which IC50 did it give?
A: 5 to 10 µM

Q: Which IC50 does the source give for `O=C(N[C@H]1N=C(c2ccccc2)c2ccccc2NC1=O)c1ccc(C(F)(F)F)cc1N1CCCC1` [Example 16, (S)—N-(2-Oxo-5-phenyl-2,3-dihydro-1H-benzo[e][1,4]diazepin-3-yl)-2-pyrrolidin-1-yl-4-trifluoromethyl-benzamide] here?
A: 5 to 10 µM

Q: With `O=C(N[C@H]1N=C(c2ccccc2)c2ccccc2NC1=O)c1ccc(C(F)(F)F)cc1N1CCCCC1` [Example 17, (S)—N-(2-Oxo-5-phenyl-2,3-dihydro-1H-benzo[e][1,4]diazepin-3-yl)-2-piperidin-1-yl-4-trifluoromethyl-benzamide] as the compound, how does the IC50 read?
A: 5 to 10 µM

Reference: US20080139536A1, “Benzodiazepines for Treating or Preventing Rsv Infection” (Novartis Pharmaceuticals Corporation, priority 2004, published 2008)
